Patent US7074789B2, “Kinase inhibitors” (Amgen Inc., priority 1999, dated 2006)

Experiments:
Type in all cases: biochemical
AKT = biological target: T1, AKT (Homo sapiens, UniProt Q9Y243); assay: Kinase inhibition assay (33P transfer), AKT; details: Table 2, kinase inhibition class; read-out: AKT3-1
T1 construct: Kinases are expressed as either kinase domains or full length constructs; made in house
Method in brief: (§1)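 Kinase domain or full-length constructs, GST- or polyHis-tagged, expressed in E. coli or baculovirus-High Five cells, sometimes with regulatory polypeptides. Activity measured as 33PO4 transfer from ATP to plate-bound poly(Glu,Tyr) 4:1 or poly(Arg,Ser) 3:1; after incubation, plates washed with 0.5% phosphoric acid and counted by liquid scintillation.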

Kdr = biological target: T2, Kdr (Homo sapiens, UniProt P35968); assay: Kinase inhibition assay (33P transfer), Kdr; details: read-out: KDR-1
T2 construct: Kinases are expressed as either kinase domains or full length constructs; made in house
Method in brief: as §1

IGFR-1 = biological target: T3, IGFR-1 (Homo sapiens, UniProt P08069); assay: Kinase inhibition assay, IGFR-1 (Table 2); details: Table 2, kinase inhibition class
T3 construct: Kinases are expressed as either kinase domains or full length constructs; made in house

ErbB4 = biological target: T4, ErbB4 (Homo sapiens, UniProt Q15303); assay: Kinase inhibition assay (33P transfer), ErbB4; details: read-out: ErbB4-1
T4 construct: Kinases are expressed as either kinase domains or full length constructs; made in house

Src = biological target: T5, Src (Homo sapiens, UniProt P12931); assay: Kinase inhibition assay (33P transfer), Src; details: Table 6, Src-1 kinase inhibition class
T5 construct: Kinases are expressed as either kinase domains or full length constructs; made in house
Method in brief: (§2)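 IC50: inhibitor concentration lowering 33P incorporation into immobilised substrate by 50%. Label transferred from ATP to poly(Glu,Tyr) 4:1 or poly(Arg,Ser) 3:1 is measured after a 0.5% phosphoric acid wash by liquid scintillation.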

Hck-1 = biological target: T6, Hck-1 (Homo sapiens, UniProt P08631); assay: Kinase inhibition assay (33P transfer), Hck; details: Table 6, Hck-1 kinase inhibition class
T6 construct: Kinases are expressed as either kinase domains or full length constructs; made in house

Ret-1 = biological target: T7, Ret-1 (Homo sapiens, UniProt P07949); assay: Kinase inhibition assay (33P transfer), Ret; details: Table 6, Ret-1 kinase inhibition class
T7 construct: Kinases are expressed as either kinase domains or full length constructs; made in house
T7 sequence (P07949 29-1114): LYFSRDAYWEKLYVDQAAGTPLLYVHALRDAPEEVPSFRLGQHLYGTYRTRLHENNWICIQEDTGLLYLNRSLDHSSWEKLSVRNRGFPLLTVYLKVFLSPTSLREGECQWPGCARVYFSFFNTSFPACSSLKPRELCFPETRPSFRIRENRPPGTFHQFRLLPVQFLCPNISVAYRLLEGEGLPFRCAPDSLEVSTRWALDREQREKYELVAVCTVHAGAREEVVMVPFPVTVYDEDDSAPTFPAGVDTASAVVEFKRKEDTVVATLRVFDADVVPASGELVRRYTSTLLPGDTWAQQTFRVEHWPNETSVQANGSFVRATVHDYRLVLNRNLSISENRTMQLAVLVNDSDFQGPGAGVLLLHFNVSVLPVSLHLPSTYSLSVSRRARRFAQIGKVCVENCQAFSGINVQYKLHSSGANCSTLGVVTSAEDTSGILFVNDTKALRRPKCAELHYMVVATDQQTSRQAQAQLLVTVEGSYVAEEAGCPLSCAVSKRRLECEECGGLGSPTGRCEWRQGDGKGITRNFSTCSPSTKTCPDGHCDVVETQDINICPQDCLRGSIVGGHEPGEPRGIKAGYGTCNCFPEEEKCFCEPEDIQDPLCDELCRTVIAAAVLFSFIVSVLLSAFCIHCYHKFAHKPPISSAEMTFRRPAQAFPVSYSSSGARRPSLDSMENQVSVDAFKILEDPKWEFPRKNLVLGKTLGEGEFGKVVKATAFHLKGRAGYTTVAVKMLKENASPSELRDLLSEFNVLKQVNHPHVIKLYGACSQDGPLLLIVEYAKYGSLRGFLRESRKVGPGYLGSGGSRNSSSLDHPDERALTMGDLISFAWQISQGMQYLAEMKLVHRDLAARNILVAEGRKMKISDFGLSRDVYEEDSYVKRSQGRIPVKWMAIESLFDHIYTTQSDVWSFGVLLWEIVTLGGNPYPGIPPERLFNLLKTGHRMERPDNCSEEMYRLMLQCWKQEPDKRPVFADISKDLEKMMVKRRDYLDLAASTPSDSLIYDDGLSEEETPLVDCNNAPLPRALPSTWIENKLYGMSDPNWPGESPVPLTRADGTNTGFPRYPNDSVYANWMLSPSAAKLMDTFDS

Fyn = biological target: T8, Fyn (Homo sapiens, UniProt P06241); assay: Kinase inhibition assay (33P transfer), Fyn; details: read-out: Fyn-1
T8 construct: Kinases are expressed as either kinase domains or full length constructs; made in house
Method in brief: as §2

Zap-70 = biological target: T9, Zap-70 (Homo sapiens, UniProt P43403); assay: Kinase inhibition assay (33P transfer), Zap-70; details: read-out: Zap-1
T9 construct: Kinases are expressed as either kinase domains or full length constructs; made in house
T9 sequence (P43403 1-619): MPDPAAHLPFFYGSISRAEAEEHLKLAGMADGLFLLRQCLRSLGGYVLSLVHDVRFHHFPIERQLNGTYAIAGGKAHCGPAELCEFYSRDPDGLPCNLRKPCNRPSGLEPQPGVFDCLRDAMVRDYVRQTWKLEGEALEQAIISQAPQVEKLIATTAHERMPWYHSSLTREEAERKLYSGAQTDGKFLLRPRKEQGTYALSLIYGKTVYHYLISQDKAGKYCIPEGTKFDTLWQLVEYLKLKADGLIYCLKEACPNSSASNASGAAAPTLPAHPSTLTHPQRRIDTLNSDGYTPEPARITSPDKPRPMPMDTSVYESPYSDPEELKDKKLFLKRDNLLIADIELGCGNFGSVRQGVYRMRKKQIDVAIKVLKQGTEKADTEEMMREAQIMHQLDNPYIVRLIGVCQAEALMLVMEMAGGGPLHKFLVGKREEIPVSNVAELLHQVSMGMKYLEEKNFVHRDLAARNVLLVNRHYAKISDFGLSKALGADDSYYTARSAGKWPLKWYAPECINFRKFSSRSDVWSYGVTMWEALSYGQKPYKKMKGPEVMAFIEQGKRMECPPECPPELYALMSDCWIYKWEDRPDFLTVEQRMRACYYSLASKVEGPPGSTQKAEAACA
Method in brief: as §1

c-Met = biological target: T10, c-Met (Homo sapiens, UniProt P08581); assay: Kinase inhibition assay (33P transfer), c-Met; details: Table 2, kinase inhibition class; read-out: Met-1
T10 construct: Kinases are expressed as either kinase domains or full length constructs; made in house
Method in brief: as §2

ErbB2 = biological target: T11, ErbB2 (Homo sapiens, UniProt P04626); assay: Kinase inhibition assay (33P transfer), ErbB2; details: read-out: ErbB2-2
T11 construct: Kinases are expressed as either kinase domains or full length constructs; made in house
T11 sequence (P04626 23-1255, species assumed): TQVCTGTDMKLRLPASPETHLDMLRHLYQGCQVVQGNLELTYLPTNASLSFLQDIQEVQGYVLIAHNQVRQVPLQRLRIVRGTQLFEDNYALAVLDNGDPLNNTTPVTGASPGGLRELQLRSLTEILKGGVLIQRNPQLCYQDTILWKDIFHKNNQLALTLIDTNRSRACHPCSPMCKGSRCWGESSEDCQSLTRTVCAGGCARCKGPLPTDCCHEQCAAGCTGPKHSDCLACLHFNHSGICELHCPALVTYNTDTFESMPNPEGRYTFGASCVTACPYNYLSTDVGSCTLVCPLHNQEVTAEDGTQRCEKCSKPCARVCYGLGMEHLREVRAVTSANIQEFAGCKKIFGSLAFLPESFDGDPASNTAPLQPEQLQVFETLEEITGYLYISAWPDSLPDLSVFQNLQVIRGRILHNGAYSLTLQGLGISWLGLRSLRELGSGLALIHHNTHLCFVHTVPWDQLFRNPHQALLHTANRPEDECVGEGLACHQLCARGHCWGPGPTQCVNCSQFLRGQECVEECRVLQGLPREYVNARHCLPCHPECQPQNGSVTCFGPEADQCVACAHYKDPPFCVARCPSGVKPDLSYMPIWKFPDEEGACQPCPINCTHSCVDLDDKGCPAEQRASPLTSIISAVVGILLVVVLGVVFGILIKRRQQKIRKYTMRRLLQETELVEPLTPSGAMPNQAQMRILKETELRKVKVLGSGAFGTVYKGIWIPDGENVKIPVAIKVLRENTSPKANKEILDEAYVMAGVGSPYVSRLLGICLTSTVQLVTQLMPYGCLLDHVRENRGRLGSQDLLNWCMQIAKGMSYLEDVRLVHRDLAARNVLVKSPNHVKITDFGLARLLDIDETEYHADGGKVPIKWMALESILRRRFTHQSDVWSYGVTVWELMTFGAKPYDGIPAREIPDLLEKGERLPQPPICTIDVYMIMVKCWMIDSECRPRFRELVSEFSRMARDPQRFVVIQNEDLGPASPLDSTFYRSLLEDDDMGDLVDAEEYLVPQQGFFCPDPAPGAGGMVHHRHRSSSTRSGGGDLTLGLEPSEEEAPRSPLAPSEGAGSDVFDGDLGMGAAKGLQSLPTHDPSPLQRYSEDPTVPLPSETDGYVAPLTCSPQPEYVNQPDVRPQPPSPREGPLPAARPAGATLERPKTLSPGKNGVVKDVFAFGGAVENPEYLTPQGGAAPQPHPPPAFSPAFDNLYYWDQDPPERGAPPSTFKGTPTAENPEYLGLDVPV
Method in brief: as §2

Lyn = biological target: T12, Lyn (Homo sapiens, UniProt P07948); assay: Kinase inhibition assay (33P transfer), Lyn; details: Table 6, Lyn-1 kinase inhibition class
T12 construct: Kinases are expressed as either kinase domains or full length constructs; made in house
T12 sequence (P07948 whole entry, species assumed, the tested form may be a part): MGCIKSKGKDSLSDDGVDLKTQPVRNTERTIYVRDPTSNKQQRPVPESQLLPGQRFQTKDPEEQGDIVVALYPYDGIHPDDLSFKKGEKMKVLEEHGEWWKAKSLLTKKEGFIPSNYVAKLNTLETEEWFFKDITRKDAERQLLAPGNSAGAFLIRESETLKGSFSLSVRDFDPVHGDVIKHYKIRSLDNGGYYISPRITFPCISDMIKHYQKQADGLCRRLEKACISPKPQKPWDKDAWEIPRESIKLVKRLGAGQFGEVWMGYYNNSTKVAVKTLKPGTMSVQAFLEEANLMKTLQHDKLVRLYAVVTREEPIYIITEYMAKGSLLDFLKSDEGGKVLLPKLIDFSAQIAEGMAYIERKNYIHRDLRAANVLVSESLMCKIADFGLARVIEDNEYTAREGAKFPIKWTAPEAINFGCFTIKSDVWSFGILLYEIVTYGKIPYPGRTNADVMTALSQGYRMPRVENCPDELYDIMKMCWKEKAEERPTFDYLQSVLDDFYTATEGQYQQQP
Method in brief: as §2

Lck = biological target: T13, Lck (Homo sapiens, UniProt P06239); assay: Kinase inhibition assay (33P transfer), Lck; details: read-out: Lck-1
T13 construct: Kinases are expressed as either kinase domains or full length constructs; made in house
Method in brief: as §1

Tek = biological target: T14, Tek (Homo sapiens, UniProt Q02763); assay: Kinase inhibition assay (33P transfer), Tek; details: read-out: Tek-1
T14 construct: Kinases are expressed as either kinase domains or full length constructs; made in house
T14 sequence (Q02763 23-1124, species assumed): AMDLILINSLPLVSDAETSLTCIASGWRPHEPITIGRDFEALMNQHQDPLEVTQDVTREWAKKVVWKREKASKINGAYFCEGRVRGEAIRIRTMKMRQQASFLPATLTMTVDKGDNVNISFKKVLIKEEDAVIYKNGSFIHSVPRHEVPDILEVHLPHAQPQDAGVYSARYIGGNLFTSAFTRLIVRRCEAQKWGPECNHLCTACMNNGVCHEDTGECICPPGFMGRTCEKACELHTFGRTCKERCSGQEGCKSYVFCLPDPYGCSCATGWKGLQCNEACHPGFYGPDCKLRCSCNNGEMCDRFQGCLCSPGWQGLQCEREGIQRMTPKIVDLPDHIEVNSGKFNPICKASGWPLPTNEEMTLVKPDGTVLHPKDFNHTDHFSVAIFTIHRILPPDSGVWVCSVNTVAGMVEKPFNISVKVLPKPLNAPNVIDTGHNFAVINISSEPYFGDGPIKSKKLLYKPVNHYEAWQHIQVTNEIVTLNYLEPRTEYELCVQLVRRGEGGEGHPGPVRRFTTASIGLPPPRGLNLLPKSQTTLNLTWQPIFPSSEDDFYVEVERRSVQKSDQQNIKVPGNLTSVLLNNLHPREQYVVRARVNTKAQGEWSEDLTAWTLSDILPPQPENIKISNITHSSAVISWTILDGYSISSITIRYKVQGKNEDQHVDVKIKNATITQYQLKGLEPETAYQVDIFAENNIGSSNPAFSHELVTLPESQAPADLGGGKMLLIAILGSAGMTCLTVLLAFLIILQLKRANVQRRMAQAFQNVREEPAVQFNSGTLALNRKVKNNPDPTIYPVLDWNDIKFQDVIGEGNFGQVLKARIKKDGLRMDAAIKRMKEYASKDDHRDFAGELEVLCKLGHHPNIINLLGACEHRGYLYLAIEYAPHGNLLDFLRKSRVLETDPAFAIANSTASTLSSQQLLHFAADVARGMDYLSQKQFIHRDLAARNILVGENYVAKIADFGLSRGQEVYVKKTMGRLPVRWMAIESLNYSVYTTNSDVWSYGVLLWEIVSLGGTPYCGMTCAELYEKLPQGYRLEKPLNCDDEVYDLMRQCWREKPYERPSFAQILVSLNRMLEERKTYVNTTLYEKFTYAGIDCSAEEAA
Method in brief: as §2

Flt-1 = biological target: T15, Flt-1 (Homo sapiens, UniProt P17948); assay: Kinase inhibition assay (33P transfer), Flt-1
T15 construct: Kinases are expressed as either kinase domains or full length constructs; made in house
Method in brief: as §2

FGFR1 = biological target: T16, FGFR1 (Homo sapiens, UniProt P11362); assay: Kinase inhibition assay (33P transfer), FGFR1; details: read-out: FGFR1-1
T16 construct: Kinases are expressed as either kinase domains or full length constructs; made in house

PDGFRB = biological target: T17, PDGFRB (Homo sapiens, UniProt P09619); assay: Kinase inhibition assay (33P transfer), PDGFRB; details: read-out: PDGFRB-1
T17 construct: Kinases are expressed as either kinase domains or full length constructs; made in house
T17 sequence (P09619 33-1106, species assumed): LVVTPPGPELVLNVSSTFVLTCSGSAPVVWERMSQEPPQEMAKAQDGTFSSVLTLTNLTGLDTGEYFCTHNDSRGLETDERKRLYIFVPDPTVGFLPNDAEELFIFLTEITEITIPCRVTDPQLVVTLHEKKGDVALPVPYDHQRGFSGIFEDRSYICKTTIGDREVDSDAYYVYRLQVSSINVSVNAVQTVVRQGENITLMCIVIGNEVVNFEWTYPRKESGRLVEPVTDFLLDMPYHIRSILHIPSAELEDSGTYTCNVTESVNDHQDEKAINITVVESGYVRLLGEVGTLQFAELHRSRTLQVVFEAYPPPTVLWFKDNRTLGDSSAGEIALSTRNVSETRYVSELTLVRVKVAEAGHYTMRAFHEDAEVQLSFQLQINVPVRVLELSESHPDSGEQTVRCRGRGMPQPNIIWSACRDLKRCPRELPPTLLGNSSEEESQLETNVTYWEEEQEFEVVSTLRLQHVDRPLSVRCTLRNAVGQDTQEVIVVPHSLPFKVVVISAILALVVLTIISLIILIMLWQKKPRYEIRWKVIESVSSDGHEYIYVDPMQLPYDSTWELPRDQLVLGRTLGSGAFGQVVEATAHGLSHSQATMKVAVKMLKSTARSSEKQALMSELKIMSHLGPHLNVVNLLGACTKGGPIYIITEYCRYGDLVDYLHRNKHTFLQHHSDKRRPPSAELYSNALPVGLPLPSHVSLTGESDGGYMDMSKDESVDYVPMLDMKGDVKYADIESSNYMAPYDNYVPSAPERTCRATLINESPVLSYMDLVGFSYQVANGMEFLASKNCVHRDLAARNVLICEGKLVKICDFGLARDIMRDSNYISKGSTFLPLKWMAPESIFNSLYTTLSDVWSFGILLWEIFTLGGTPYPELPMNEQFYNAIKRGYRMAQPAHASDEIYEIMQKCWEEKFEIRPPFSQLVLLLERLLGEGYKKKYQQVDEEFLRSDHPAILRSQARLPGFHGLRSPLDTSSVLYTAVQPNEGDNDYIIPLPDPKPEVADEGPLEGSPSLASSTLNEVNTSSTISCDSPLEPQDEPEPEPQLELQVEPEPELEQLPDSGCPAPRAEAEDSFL

EGFR = biological target: T18, EGFR (Homo sapiens, UniProt P00533); assay: Kinase inhibition assay (33P transfer), EGFR; details: Table 2, kinase inhibition class; read-out: EGFR-1
T18 construct: Kinases are expressed as either kinase domains or full length constructs; made in house
Method in brief: as §2

Itk = biological target: T19, Itk (Homo sapiens, UniProt Q08881); assay: Kinase inhibition assay (33P transfer), Itk; details: read-out: Itk-1
T19 construct: Kinases are expressed as either kinase domains or full length constructs; made in house
T19 sequence (Q08881 1-620): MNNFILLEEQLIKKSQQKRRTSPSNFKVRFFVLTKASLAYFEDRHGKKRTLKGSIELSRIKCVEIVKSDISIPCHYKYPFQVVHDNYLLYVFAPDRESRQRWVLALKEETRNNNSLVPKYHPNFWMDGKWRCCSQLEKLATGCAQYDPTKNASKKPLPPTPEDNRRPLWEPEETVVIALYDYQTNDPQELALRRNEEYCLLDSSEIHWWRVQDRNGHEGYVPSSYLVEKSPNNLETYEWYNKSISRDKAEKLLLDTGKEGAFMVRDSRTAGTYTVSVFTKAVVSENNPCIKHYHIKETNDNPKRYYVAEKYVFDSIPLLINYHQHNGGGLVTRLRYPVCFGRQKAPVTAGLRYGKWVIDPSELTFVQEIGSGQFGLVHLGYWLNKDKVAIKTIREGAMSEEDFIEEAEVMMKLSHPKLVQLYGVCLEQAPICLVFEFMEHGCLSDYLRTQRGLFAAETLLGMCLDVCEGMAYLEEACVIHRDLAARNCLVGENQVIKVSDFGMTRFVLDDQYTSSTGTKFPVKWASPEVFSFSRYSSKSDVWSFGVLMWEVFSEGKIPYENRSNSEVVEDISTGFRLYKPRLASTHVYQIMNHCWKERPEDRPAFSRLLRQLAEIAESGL
Method in brief: as §2

With `NC(=O)c1ccc(Nc2ncnc(-c3cccnc3NCc3ccccc3)n2)cc1` [Compound 1082] the IC50 (AKT) was over 11.3 µM, the IC50 (Kdr) was under 1.01 µM and the IC50 (IGFR-1) was 6.04 to 8.81 µM. The IC50 (ErbB4) was 1.01 to 6.04 µM, the IC50 (Src) was over 11.3 µM and the IC50 (Hck-1) was over 11.3 µM. For the same compound, the IC50 (Ret-1) was under 1.01 µM, the IC50 (Fyn) was over 11.3 µM and the IC50 (Zap-70) was 1.01 to 6.04 µM. It also gave an IC50 (c-Met) of 8.81 to 11.3 µM, an IC50 (ErbB2) of over 11.3 µM and an IC50 (Lyn) of 6.04 to 8.81 µM. It also gave an IC50 (Lck) of 1.01 to 6.04 µM, an IC50 (Tek) of 1.01 to 6.04 µM and an IC50 (Flt-1) of over 11.3 µM. For the same compound, the IC50 (FGFR1) was over 11.3 µM, the IC50 (PDGFRB) was 1.01 to 6.04 µM and the IC50 (EGFR) was 1.01 to 6.04 µM. For the same compound, the IC50 (Itk) was over 11.3 µM.

`COc1ccc(Nc2ncccc2-c2ncnc(Nc3cc(OC)c(OC)c(OC)c3)n2)c(C)c1` [Compound 1086] showed an IC50 (AKT) of over 9.48 µM, an IC50 (Kdr) of under 0.843 µM and an IC50 (IGFR-1) of over 9.48 µM. The IC50 (ErbB4) was over 9.48 µM, the IC50 (Src) was over 9.48 µM and the IC50 (Hck-1) was over 9.48 µM. It also gave an IC50 (Ret-1) of 7.38 to 9.48 µM, an IC50 (Fyn) of over 9.48 µM and an IC50 (Zap-70) of over 9.48 µM. It also gave an IC50 (c-Met) of over 9.48 µM, an IC50 (ErbB2) of 7.38 to 9.48 µM and an IC50 (Lyn) of over 9.48 µM. The IC50 (Lck) was 5.06 to 7.38 µM, the IC50 (Tek) was 7.38 to 9.48 µM and the IC50 (Flt-1) was 5.06 to 7.38 µM. For the same compound, the IC50 (FGFR1) was over 9.48 µM, the IC50 (PDGFRB) was over 9.48 µM and the IC50 (EGFR) was over 9.48 µM. For the same compound, the IC50 (Itk) was over 9.48 µM.

Work on `COc1cc(Nc2ncnc(Nc3ccc(Br)c4ccccc34)n2)cc(OC)c1OC` [Compound 613] yielded an IC50 (AKT) of over 9.33 µM, an IC50 (Kdr) of 4.98 to 7.26 µM and an IC50 (IGFR-1) of 7.26 to 9.33 µM. For the same compound, the IC50 (ErbB4) was 0.829 to 4.98 µM, the IC50 (Src) was over 9.33 µM and the IC50 (Hck-1) was over 9.33 µM. The IC50 (Ret-1) was 0.829 to 4.98 µM, the IC50 (Fyn) was over 9.33 µM and the IC50 (Zap-70) was over 9.33 µM. For the same compound, the IC50 (c-Met) was over 9.33 µM, the IC50 (ErbB2) was under 0.829 µM and the IC50 (Lyn) was 4.98 to 7.26 µM. For the same compound, the IC50 (Lck) was 0.829 to 4.98 µM, the IC50 (Tek) was over 9.33 µM and the IC50 (Flt-1) was over 9.33 µM. For the same compound, the IC50 (FGFR1) was 0.829 to 4.98 µM, the IC50 (PDGFRB) was under 0.829 µM and the IC50 (EGFR) was 0.829 to 4.98 µM. It also gave an IC50 (Itk) of over 9.33 µM.

`COc1ccc(Nc2ncnc(-n3c(N)nc4ccccc43)n2)cc1` [Compound 656] gave an IC50 (AKT) of over 13.5 µM, an IC50 (Kdr) of under 1.2 µM and an IC50 (IGFR-1) of under 1.2 µM. The IC50 (ErbB4) was 7.2 to 10.5 µM, the IC50 (Src) was 7.2 to 10.5 µM and the IC50 (Hck-1) was 7.2 to 10.5 µM. The IC50 (Ret-1) was 1.2 to 7.2 µM, the IC50 (Fyn) was 10.5 to 13.5 µM and the IC50 (Zap-70) was over 13.5 µM. It also gave an IC50 (c-Met) of 1.2 to 7.2 µM, an IC50 (ErbB2) of 7.2 to 10.5 µM and an IC50 (Lyn) of 7.2 to 10.5 µM. For the same compound, the IC50 (Lck) was 1.2 to 7.2 µM, the IC50 (Tek) was 1.2 to 7.2 µM and the IC50 (Flt-1) was 1.2 to 7.2 µM. For the same compound, the IC50 (FGFR1) was 1.2 to 7.2 µM, the IC50 (PDGFRB) was 1.2 to 7.2 µM and the IC50 (EGFR) was 7.2 to 10.5 µM. It also gave an IC50 (Itk) of 7.2 to 10.5 µM.

In the case of `COc1cc(Nc2ncnc(-n3c(NCc4ccc(F)cc4Cl)nc4ccccc43)n2)cc(OC)c1OC` [Compound 951], the IC50 (AKT) is reported as over 8.4 µM, the IC50 (Kdr) is reported as under 0.746 µM and the IC50 (IGFR-1) is reported as over 8.4 µM. For the same compound, the IC50 (ErbB4) was over 8.4 µM, the IC50 (Src) was over 8.4 µM and the IC50 (Hck-1) was over 8.4 µM. It also gave an IC50 (Ret-1) of under 0.746 µM, an IC50 (Fyn) of over 8.4 µM and an IC50 (Zap-70) of over 8.4 µM. The IC50 (c-Met) was over 8.4 µM, the IC50 (ErbB2) was over 8.4 µM and the IC50 (Lyn) was over 8.4 µM. The IC50 (Lck) was 0.746 to 4.48 µM, the IC50 (Tek) was 4.48 to 6.53 µM and the IC50 (Flt-1) was over 8.4 µM. For the same compound, the IC50 (FGFR1) was under 0.746 µM, the IC50 (PDGFRB) was under 0.746 µM and the IC50 (EGFR) was 6.53 to 8.4 µM. It also gave an IC50 (Itk) of over 8.4 µM.
